Earlier results as cited in US6709866B2, “Methods for enhancing survival of a neuron” (Aegera Therapeutics, Inc., priority 1996, dated 2004).

What was measured:
motoneurons = conditions: literature
hippocampal cultures = conditions: 100 pM
[1] = tested on: primary hippocampal, cortical and septal cultures; conditions: Cheng et al. 1994

CCSCc1ccc2c(c1)c1c3c(c4c5cc(CSCC)ccc5n5c4c1n2[C@H]1C[C@](O)(C(=O)OC)[C@]5(C)O1)CNC3=O [CEP1347]
motoneuron death and loss of ChAT in vivo (motoneurons): prevents developmentally programmed motoneuron death and loss of ChAT in adult motoneurons

C[C@]12O[C@H](C[C@]1(O)C(=O)O)n1c3ccccc3c3c4c(c5c6ccccc6n2c5c31)CNC4=O [K252b]
tyrosine phosphorylation of multiple proteins (40 to 200 kDa) (hippocampal cultures): enhance tyrosine phosphorylation

O=c1c(-c2ccc(O)cc2)coc2cc(O)cc(O)c12 [genistein]
effect on the neuroprotective effects of K252-like compounds [1]: blocked
